Reference: article PMC5856786, “A DHODH inhibitor increases p53 synthesis and enhances tumor cell killing by p53 degradation blockage” (Nature Communications, 2018)
Structures can show the parent of a compound that is named as a salt.

Biological target: recombinant human DHODH (Homo sapiens, UniProt Q02127)
Assay: Endpoint DHODH enzyme assay (coenzyme Q10, DCIP)
Format: biochemical
Parameters: purchased Prospecbio ENZ-642
Settings: compound at 10 µM
Experimental: In Supplementary Tables 5 and 6, endpoint assays were performed with 10 nM recombinant human DHODH (#ENZ-642, Prospecbio). The reaction mixture consisted of 624.6 µM DL-dihydroorotic acid, 66.4 µM coenzyme Q10, 66.4 µM 2,6-dichlorophenolindophenol sodium salt (DCIP) (all reagents purchased from Sigma-Aldrich) in enzyme buffer (50 mM Tris-HCl, pH 8.0, 0.1% Triton X-100, 150 mM KCl). Loss in absorbance by DCIP was measured at 595 nm after incubation at RT for 60 min.

[1] = Supplementary Table 6, 30,000 compound library
[2] = Supplementary Table 5, 20,000 compound library

Chain of recombinant human DHODH (Q02127 31-395 limits assumed): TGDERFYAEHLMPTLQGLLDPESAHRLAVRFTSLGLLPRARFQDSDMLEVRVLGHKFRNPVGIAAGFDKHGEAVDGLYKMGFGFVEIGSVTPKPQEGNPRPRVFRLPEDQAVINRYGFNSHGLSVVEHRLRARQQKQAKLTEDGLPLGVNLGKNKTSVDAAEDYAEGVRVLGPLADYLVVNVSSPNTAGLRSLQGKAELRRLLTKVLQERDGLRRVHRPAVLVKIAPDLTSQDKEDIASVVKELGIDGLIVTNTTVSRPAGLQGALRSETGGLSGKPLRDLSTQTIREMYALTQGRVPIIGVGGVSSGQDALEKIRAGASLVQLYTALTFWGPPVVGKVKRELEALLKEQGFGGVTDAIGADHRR

In the case of O=[N+]([O-])c1ccc2[nH]c3c(c2c1)CCCC3NC1CCN(CCc2ccccc2)CC1 (centres unmarked) [compound 5781441, 6-nitro-N-[1-(2-phenylethyl)-4-piperidinyl]-2,3,4,9-tetrahydro-1H-carbazol-1-amine], the remaining activity at 10 µM [1] is reported as 59.6%.
CCOc1cccc2c(C)nc(Nc3nc(=O)c4c([nH]3)CCCC4)nc12 [compound 7587351, 2-[(8-ethoxy-4-methyl-2-quinazolinyl)amino]-5,6,7,8-tetrahydro-4(1H)-quinazolinone] showed a remaining activity at 10 µM [2] of 92.7%.
Compound Cc1ccc(CSCC(=O)Nc2ccccc2C(=O)O)cc1 [compound 7723007, 2-({[(4-methylbenzyl)thio]acetyl}amino)benzoic acid] has a remaining activity at 10 µM [2] of -8.22%.
O=C(Nc1nc2ccccc2s1)C1c2ccccc2Oc2ccccc21 [compound 5704541, N-1,3-benzothiazol-2-yl-9H-xanthene-9-carboxamide] was tested, and the remaining activity at 10 µM [1] was 71%.
Cc1cccc(Cc2cnc(NC(=O)c3ccc(Br)cc3)s2)c1 [compound 5852371, 4-bromo-N-[5-(3-methylbenzyl)-1,3-thiazol-2-yl]benzamide] gave a remaining activity at 10 µM [1] of 97.6%.
COc1cc(C=C2N=C(SC)SC2=O)cc(Br)c1OCc1ccccc1 [compound 6638116, 4-[4-(benzyloxy)-3-bromo-5-methoxybenzylidene]-2-(methylthio)-1,3-thiazol-5(4H)-one] gave a remaining activity at 10 µM [1] of 78.8%.
For COc1cccc(-c2noc(-c3ccc(N4CCCC(O)C4)nc3)n2)c1OC (centres unmarked) [compound 78928129, 1-{5-[3-(2,3-dimethoxyphenyl)-1,2,4-oxadiazol-5-yl]-2-pyridinyl}-3-piperidinol], the remaining activity at 10 µM [2] was 42.3%.
With COc1ccc(C2c3[nH]c4ccccc4c3CCN2Cc2ccoc2)c(F)c1 (stereo not drawn) [compound 76026685, 1-(2-fluoro-4-methoxyphenyl)-2-(3-furylmethyl)-2,3,4,9-tetrahydro-1H-beta-carboline] the remaining activity at 10 µM [2] was 88.5%.
COc1ccc(S(=O)(=O)Nc2ccc(I)cc2C)cc1 [compound 5351654, N-(4-iodo-2-methylphenyl)-4-methoxybenzenesulfonamide] showed a remaining activity at 10 µM [1] of 99.2%.
With COc1cccc(-c2noc(-c3ccc(N4C[C@H]5CC[C@H]4C5)nc3)n2)c1OC (relative stereo) [compound 75901793, (1S*,4S*)-2-{5-[3-(2,3-dimethoxyphenyl)-1,2,4-oxadiazol-5-yl]-2-pyridinyl}-2-azabicyclo[2.2.1]heptane] the “remaining DHODH activity (%) Average” value [2] was 5.94%.
Compound CN(C)c1ccc(C=Cc2nc3ccccc3c(=O)[nH]2)cc1 [compound 5705506, 2-{2-[4-(dimethylamino)phenyl]vinyl}-4(3H)-quinazolinone] has a remaining activity at 10 µM [1] of 82.5%.
COc1ccc(C=NN2CCN(Cc3ccccc3)CC2)c(OC)c1 [compound 5783994, 4-benzyl-N-(2,4-dimethoxybenzylidene)-1-piperazinamine] was tested, and the remaining activity at 10 µM [1] was 101%.
With O=C1Nc2ccccc2C1=CNC1CCCc2c1[nH]c1ccccc21 (centres unmarked) [compound 5666718, 3-[(2,3,4,9-tetrahydro-1H-carbazol-1-ylamino)methylene]-1,3-dihydro-2H-indol-2-one] the remaining activity at 10 µM [1] was 48.5%.
In the case of Cc1cccn(CC(=O)c2ccc(-c3ccccc3)cc2)c1=N [compound 5120580, 1-(4-biphenylyl)-2-(2-imino-3-methyl-1(2H)-pyridinyl)ethanone hydrobromide], the remaining activity at 10 µM [1] is reported as 19.2%.
Work on CCOc1cc(C=Cc2ccc3cccc(OC(=O)CC)c3n2)ccc1OC(=O)CC [compound 7706999, 2-{2-[3-ethoxy-4-(propionyloxy)phenyl]vinyl}-8-quinolinyl propionate] yielded a remaining activity at 10 µM [2] of 98.2%.
In the case of Cc1ccc2[nH]c3c(c2c1)CCCC3NC=C1C(=O)CC(C)(C)CC1=O (centres unmarked) [compound 5666613, 5,5-dimethyl-2-{[(6-methyl-2,3,4,9-tetrahydro-1H-carbazol-1-yl)amino]methylene}-1,3-cyclohexanedione], the “remaining DHODH activity (%) Average” value [1] is reported as 92.20%.
In the case of COc1ccc(Cl)cc1NC(=O)c1ccc([N+](=O)[O-])o1 [compound 5356839, N-(5-chloro-2-methoxyphenyl)-5-nitro-2-furamide], the remaining activity at 10 µM [2] is reported as 83.8%.
Compound Cc1cc(O)ccc1NC(=O)c1ccc(-c2ccccc2)cc1 [compound 7782544, N-(4-hydroxy-2-methylphenyl)-4-biphenylcarboxamide] has a remaining activity at 10 µM [2] of 73.5%.
Cc1ccccc1C=Nc1ccccc1C(N)=O [compound 5320101, 2-[(2-methylbenzylidene)amino]benzamide] gave a remaining activity at 10 µM [1] of 101%.
CC1=C(C(=O)Nc2ccc(F)cc2)C(c2ccccc2OCc2ccccc2)C2=C(CCCC2=O)N1 (centres unmarked) [compound 7705624, 4-[2-(benzyloxy)phenyl]-N-(4-fluorophenyl)-2-methyl-5-oxo-1,4,5,6,7,8-hexahydro-3-quinolinecarboxamide] was tested, and the “remaining DHODH activity (%) Average” value [2] was 104.27%.
CCN(CC)c1ccc2cc(-c3nc4ccccc4o3)c(=O)oc2c1 [compound 5213777, 3-(1,3-benzoxazol-2-yl)-7-(diethylamino)-2H-chromen-2-one] was tested, and the remaining activity at 10 µM [1] was 92.1%.
CCN(CC)c1ccc2cc(-c3nc4ccccc4n3C)c(=O)oc2c1 [compound 5213776, 7-(diethylamino)-3-(1-methyl-1H-benzimidazol-2-yl)-2H-chromen-2-one] showed a remaining activity at 10 µM [1] of 96.8%.
For O=[N+]([O-])c1ccc2[nH]c3c(c2c1)CCCC3NC1Cc2ccccc2C1 (centres unmarked) [compound 5781444, N-(2,3-dihydro-1H-inden-2-yl)-6-nitro-2,3,4,9-tetrahydro-1H-carbazol-1-amine], the remaining activity at 10 µM [1] was 57.9%.
In the case of CC(Cc1ccccc1F)NC1CCCc2c1[nH]c1ccc([N+](=O)[O-])cc21 (centres unmarked) [compound 5781454, N-[2-(2-fluorophenyl)-1-methylethyl]-6-nitro-2,3,4,9-tetrahydro-1H-carbazol-1-amine], the remaining activity at 10 µM [1] is reported as 55.4%.
O=c1[nH]c(C=Cc2ccccc2)nc2sc3c(c12)CCCC3 [compound 5625039, 2-(2-phenylvinyl)-5,6,7,8-tetrahydro[1]benzothieno[2,3-d]pyrimidin-4(3H)-one] gave a remaining activity at 10 µM [1] of 98.4%.
Cc1cc(O)c(NC(=S)NC(=O)c2ccc(C(C)(C)C)cc2)cc1C [compound 6611243, 4-tert-butyl-N-{[(2-hydroxy-4,5-dimethylphenyl)amino]carbonothioyl}benzamide] showed a remaining activity at 10 µM [1] of 51%.
CC1CCC(NC2CCCc3c2[nH]c2ccc([N+](=O)[O-])cc32)CC1 (centres unmarked) [compound 5781447, N-(4-methylcyclohexyl)-6-nitro-2,3,4,9-tetrahydro-1H-carbazol-1-amine] showed a remaining activity at 10 µM [1] of 56.8%.
With Cc1ccc(-c2nc(CN3CCCCC3c3nccs3)c(C)o2)o1 (centres unmarked) [compound 47561416, 1-{[5-methyl-2-(5-methyl-2-furyl)-1,3-oxazol-4-yl]methyl}-2-(1,3-thiazol-2-yl)piperidine] the remaining activity at 10 µM [2] was 86.3%.
CCC(C)Nc1ccc(-c2nc(-c3cccc(OC)c3OC)no2)cn1 (centres unmarked) [compound 55410102, N-(sec-butyl)-5-[3-(2,3-dimethoxyphenyl)-1,2,4-oxadiazol-5-yl]-2-pyridinamine] gave a remaining activity at 10 µM [2] of 2.28%.
Compound COc1ccc(CNc2ccc(Br)c(C)c2)cc1Br [compound 5561538, (3-bromo-4-methoxybenzyl)(4-bromo-3-methylphenyl)amine] has a remaining activity at 10 µM [1] of 42.5%.
Work on O=C(Nc1cc(Cl)ccc1Cl)c1ccc([N+](=O)[O-])o1 [compound 5351342, N-(2,5-dichlorophenyl)-5-nitro-2-furamide] yielded a remaining activity at 10 µM [2] of 90.4%.
O=C1CC(c2ccccc2OCc2ccccc2)c2cc3c(cc2N1)OCCO3 (centres unmarked) [compound 7834586, 9-[2-(benzyloxy)phenyl]-2,3,8,9-tetrahydro[1,4]dioxino[2,3-g]quinolin-7(6H)-one] showed a remaining activity at 10 µM [2] of 103%.
In the case of O=C(Nc1nc2c(s1)CCCC2)C(=O)c1c[nH]c2ccccc12 [compound 7690424, 2-(1H-indol-3-yl)-2-oxo-N-(4,5,6,7-tetrahydro-1,3-benzothiazol-2-yl)acetamide], the remaining activity at 10 µM [2] is reported as 11%.
For Cc1ccccc1NC(=S)NC(=O)c1cccc2c(Br)cccc12 [compound 6592864, 5-bromo-N-{[(2-methylphenyl)amino]carbonothioyl}-1-naphthamide], the remaining activity at 10 µM [2] was 72.2%.
Cc1ccc2[nH]c3c(c2c1)CCCC3NCc1ccccc1 (centres unmarked) [compound 5869604, N-benzyl-6-methyl-2,3,4,9-tetrahydro-1H-carbazol-1-amine hydrochloride] was tested, and the remaining activity at 10 µM [1] was 27.3%.
COCCOC(=O)Nc1nc2sc3c(c2s1)CCCC3 [compound 5175570, 2-methoxyethyl 5,6,7,8-tetrahydro[1]benzothieno[2,3-d][1,3]thiazol-2-ylcarbamate] showed a remaining activity at 10 µM [1] of 101%.
Work on Cc1cc(=O)oc2cc(NC(=S)N3c4ccccc4CC3C)ccc12 (centres unmarked) [compound 7841649, 2-methyl-N-(4-methyl-2-oxo-2H-chromen-7-yl)-1-indolinecarbothioamide] yielded a remaining activity at 10 µM [2] of 3.65%.
Work on CC(C)(C)c1ccc(C(=O)NC(=S)Nc2cccc(NC(=O)c3ccccc3)c2)cc1 [compound 6519439, N-({[3-(benzoylamino)phenyl]amino}carbonothioyl)-4-tert-butylbenzamide] yielded a remaining activity at 10 µM [1] of 63.2%.
In the case of CC(C)(C)c1ccc(C(=O)NC(=S)Nc2cccc([N+](=O)[O-])c2)cc1 [compound 6515740, 4-tert-butyl-N-{[(3-nitrophenyl)amino]carbonothioyl}benzamide], the remaining activity at 10 µM [1] is reported as 88.9%.
With COc1ccc(C2c3[nH]c4ccccc4c3CCN2Cc2nccs2)cc1C (stereo not drawn) [compound 90739158, 1-(4-methoxy-3-methylphenyl)-2-(1,3-thiazol-2-ylmethyl)-2,3,4,9-tetrahydro-1H-beta-carboline] the “remaining DHODH activity (%) Average” value [2] was 91.88%.
Compound CC(C)NC1CCCc2c1[nH]c1ccc([N+](=O)[O-])cc21 (centres unmarked) [compound 5781470, N-isopropyl-6-nitro-2,3,4,9-tetrahydro-1H-carbazol-1-amine] has a remaining activity at 10 µM [1] of 90.2%.
